Results from patent US20260250290A1 (BRISTOL-MYERS SQUIBB COMPANY, priority 2023, published 2026).
Where a name gives a salt, the structure may show the parent alone.

Target: T1, full length SGK1 (Homo sapiens, UniProt O00141)
T1 construct: 125 μM full length SGK1 (Life Technologies Part #PR7358A); purchased Life Technologies PR7358A
T1 sequence (O00141 1-431): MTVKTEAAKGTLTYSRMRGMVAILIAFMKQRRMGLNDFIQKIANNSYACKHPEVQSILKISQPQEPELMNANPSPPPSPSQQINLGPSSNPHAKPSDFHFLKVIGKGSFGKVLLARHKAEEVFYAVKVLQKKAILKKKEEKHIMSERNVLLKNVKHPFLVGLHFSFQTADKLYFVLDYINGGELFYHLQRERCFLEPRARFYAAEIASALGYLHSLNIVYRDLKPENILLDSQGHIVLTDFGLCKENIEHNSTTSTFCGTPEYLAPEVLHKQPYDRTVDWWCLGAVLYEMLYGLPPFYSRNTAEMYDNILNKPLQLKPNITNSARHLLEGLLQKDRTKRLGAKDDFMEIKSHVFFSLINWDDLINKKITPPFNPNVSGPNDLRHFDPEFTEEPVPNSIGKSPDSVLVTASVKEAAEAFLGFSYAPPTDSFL
Assay: SGK1 inhibition Assay A (Caliper LabChip electrophoretic separation of fluorescent peptide substrate and phosphorylated product)
Format: biochemical
Settings: Assay A; 20 μM ATP, 40 min incubation; read-out: SGK1 IC50

Row | IC50 [nM] | Structure (SMILES)
1 | 350 | CN(C)CCOc1cc(Cl)sc1C(=O)N[C@@H]1CCCN(c2cc(C3=CCNCC3)n3ncnc(N)c23)C1 [Example 172, (R)—N-(1-(4-amino-7-(1,2,3,6-tetrahydropyridin-4-yl)pyrrolo[2,1-f][1,2,4]triazin-5-yl)piperidin-3-yl)-5-chloro-3-(2-(dimethylamino)ethoxy)thiophene-2-carboxamide, 3 TFA]
2 | 225 | CC(=O)N1CC=C(c2cc(N3CCC[C@@H](NC(=O)c4cnc(C)cn4)C3)c3c(N)ncnn23)C1 [Example 451, (R)-N-(1-(7-(1-acetyl-2,5-dihydro-1H-pyrrol-3-yl)-4-aminopyrrolo[2,1-f][1,2,4]triazin-5-yl)piperidin-3-yl)-5-methylpyrazine-2-carboxamide]
3 | 3 | COC(=O)N1CC=C(c2cc(N3CCC[C@@H](NC(=O)c4sc(Cl)cc4OC4CCN(C(C)C)CC4)C3)c3c(N)ncnn23)C1 [Example 563, methyl (R)-3-(4-amino-5-(3-(5-chloro-3-((1-isopropylpiperidin-4-yl)oxy)thiophene-2-carboxamido)piperidin-1-yl)pyrrolo[2,1-f][1,2,4]triazin-7-yl)-2,5-dihydro-1H-pyrrole-1-carboxylate]
4 | 23 | CC(=O)N1CC=C(c2cc(N3CCC[C@@H](NC(=O)c4cccc(OCC5CN(C)C5)n4)C3)c3c(N)ncnn23)C1 [Example 733, (R)-N-(1-(7-(1-acetyl-2,5-dihydro-1H-pyrrol-3-yl)-4-aminopyrrolo[2,1-f][1,2,4]triazin-5-yl)piperidin-3-yl)-6-((1-methylazetidin-3-yl)methoxy)picolinamide]
5 | 99 | Cc1nc(-c2cc(C(=O)N3CC=C(c4cc(N5CCC[C@@H](NC(=O)c6ccc(Cl)s6)C5)c5c(N)ncnn45)C3)no2)cs1 [Example 884, (R)-N-(1-(4-amino-7-(1-(5-(2-methylthiazol-4-yl)isoxazole-3-carbony1)-2,5-dihydro-1H-pyrrol-3-yl)pyrrolo[2,1-f][1,2,4]triazin-5-y1)piperidin-3-y1)-5-chlorothiophene-2-carboxamide]
6 | 111 | CS(=O)(=O)c1ccc(-c2cc(N3CCC[C@@H](NC(=O)c4ccsn4)C3)c3c(N)ncnn23)cc1 [Example 62, (R)-N-(1-(4-amino-7-(4-(methylsulfonyl)phenyl)pyrrolo[2,1-f][1,2,4]triazin-5-yl)piperidin-3-yl)isothiazole-3-carboxamide]
7 | 383 | COc1cc(C(=O)N(C)[C@@H]2CCCN(c3cc(-c4ccc(S(C)(=O)=O)cc4)n4ncnc(N)c34)C2)ccn1 [Example 121, (R)—N-(1-(4-amino-7-(4-(methylsulfonyl)phenyl)pyrrolo[2,1-f][1,2,4]triazin-5-yl)piperidin-3-yl)-2-methoxy-N-methylisonicotinamide]
8 | 233 | CC(C)(O)c1ccc(-c2cc(N3CCC[C@@H](NC(=O)c4ccc(Cl)s4)C3)c3c(N)ncnn23)cc1 [Example 218, (R)-N-(1-(4-amino-7-(4-(2-hydroxypropan-2-yl)phenyl)pyrrolo[2,1-f][1,2,4]triazin-5-yl)piperidin-3-yl)-5-chlorothiophene-2-carboxamide, TFA]
9 | 28 | CC(=O)N1CC=C(c2cc(N3CCC[C@@H](NC(=O)c4cc(N5CCOCC5)cs4)C3)c3c(N)ncnn23)C1 [Example 272, (R)—N-(1-(7-(1-acetyl-2,5-dihydro-1H-pyrrol-3-yl)-4-aminopyrrolo[2,1-f][1,2,4]triazin-5-yl)piperidin-3-yl)-4-morpholinothiophene-2-carboxamide]
10 | 1 | Nc1ncnn2c(-c3ccnc(F)c3)cc(N3CCC[C@@H](NC(=O)c4cccs4)C3)c12 [Example 153, (R)-N-(1-(4-amino-7-(2-fluoropyridin-4-yl)pyrrolo[2,1-f][1,2,4]triazin-5-yl)piperidin-3-yl)thiophene-2-carboxamide]
11 | 25 | Nc1ncnn2c(C3=CCN(C(=O)[C@H]4CCNC4)C3)cc(N3CCC[C@@H](NC(=O)c4ccc(Cl)s4)C3)c12 [Example 891, N-((R)-1-(4-amino-7-(1-((S)-pyrrolidine-3-carbonyl)-2,5-dihydro-1H-pyrrol-3-y1)pyrrolo[2,1-f][1,2,4]triazin-5-y1)piperidin-3-y1)-5-chlorothiophene-2-carboxamide]
12 | 114 | CC(=O)N1CC=C(c2cc(N3CCC[C@@H](NC(=O)c4cccnc4OCCN4CCN(C)CC4)C3)c3c(N)ncnn23)C1 [Example 722, (R)-N-(1-(7-(1-acetyl-2,5-dihydro-1H-pyrrol-3-yl)-4-aminopyrrolo[2,1-f][1,2,4]triazin-5-yl)piperidin-3-yl)-2-(2-(4-methylpiperazin-1-yl)ethoxy)nicotinamide]
13 | 11 | N#Cc1ncc(-c2cc(N3CCC[C@@H](NC(=O)c4ccc(Cl)s4)C3)c3c(N)ncnn23)cc1F [Example 530, (R)-N-(1-(4-amino-7-(6-cyano-5-fluoropyridin-3-yl)pyrrolo[2,1-f][1,2,4]triazin-5-yl)piperidin-3-yl)-5-chlorothiophene-2-carboxamide]
14 | 1 | NC(=O)c1ccc(-c2cc(N3CCC[C@@H](NC(=O)c4sc(C5CC5)cc4OC4CCNCC4)C3)c3c(N)ncnn23)cc1F [Example 380, (R)-N-(1-(4-amino-7-(4-carbamoyl-3-fluorophenyl)pyrrolo[2,1-f][1,2,4]triazin-5-yl)piperidin-3-yl)-5-cyclopropyl-3-(piperidin-4-yloxy)thiophene-2-carboxamide]
15 | 5 | CS(=O)(=O)c1ccc(-c2cc(N3CCC[C@@H](NC(=O)c4ccc(F)s4)C3)c3c(N)ncnn23)cc1 [Example 93, (R)-N-(1-(4-amino-7-(4-(methylsulfonyl)phenyl)pyrrolo[2,1-f][1,2,4]triazin-5-yl)piperidin-3-yl)-5-fluorothiophene-2-carboxamide]
16 | 1 | Nc1ncnn2c(-c3ccc(-n4cnnn4)c(F)c3)cc(N3CCC[C@@H](NC(=O)c4ccc(Cl)s4)C3)c12 [Example 245, (R)-N-(1-(4-amino-7-(3-fluoro-4-(1H-tetrazol-1-yl)phenyl)pyrrolo[2,1-f][1,2,4]triazin-5-yl)piperidin-3-yl)-5-chlorothiophene-2-carboxamide]
17 | 18 | COC(=O)N1CC=C(c2cc(N3CCC[C@@H](NC(=O)c4sc(Cl)cc4OCCN4CCC(F)(F)CC4)C3)c3c(N)ncnn23)C1 [Example 284, methyl (R)-3-(4-amino-5-(3-(5-chloro-3-(2-(4,4-difluoropiperidin-1-yl)ethoxy)thiophene-2-carboxamido)piperidin-1-yl)pyrrolo[2,1-f][1,2,4]triazin-7-yl)-2,5-dihydro-1H-pyrrole-1-carboxylate]
18 | 15 | CS(=O)(=O)c1ccc(-c2cc(N3CCC[C@@H](NC(=O)c4cccc(C5CC5)c4)C3)c3c(N)ncnn23)cc1 [Example 82, (R)-N-(1-(4-amino-7-(4-(methylsulfonyl)phenyl)pyrrolo[2,1-f][1,2,4]triazin-5-yl)piperidin-3-yl)-3-cyclopropylbenzamide]
19 | 12 | C=Cc1cc(C)sc1C(=O)N[C@@H]1CCCN(c2cc(-c3ccnc(F)c3)n3ncnc(N)c23)C1 [Example 169, (R)—N-(1-(4-amino-7-(2-fluoropyridin-4-yl)pyrrolo[2,1-f][1,2,4]triazin-5-yl)piperidin-3-yl)-5-methyl-3-vinylthiophene-2-carboxamide]
20 | 10 | COC(=O)N1CC=C(c2cc(N3CCC[C@@H](NC(=O)c4sc(C(F)F)cc4OCCN(C)C)C3)c3c(N)ncnn23)C1 [Example 303, Methyl (R)-3-(4-amino-5-(3-(5-(difluoromethyl)-3-(2-(dimethylamino)ethoxy)thiophene-2-carboxamido)piperidin-1 - yl)pyrrolo [2,1-f][1,2,4]triazin-7-yl)-2,5-dihydro-1H-pyrrole-1-carboxylate]
21 | 8 | Cc1cc(C(=O)N[C@@H]2CCCN(c3cc(-c4ccc(S(C)(=O)=O)cc4)n4ncnc(N)c34)C2)sn1 [Example 73, (R)-N-(1-(4-amino-7-(4-(methylsulfonyl)phenyl)pyrrolo[2,1-f][1,2,4]triazin-5-yl)piperidin-3-yl)-3-methylisothiazole-5-carboxamide]
22 | 5 | Nc1ncnn2c(-c3ccnc(F)c3)cc(N3CCC[C@@H](NC(=O)c4ccc(C(F)F)s4)C3)c12 [Example 152, (R)-N-(1-(4-amino-7-(2-fluoropyridin-4-yl)pyrrolo[2,1-f][1,2,4]triazin-5-yl)piperidin-3-yl)-5-(difluoromethyl)thiophene-2-carboxamide, TFA]
23 | 9 | CC(=O)N1CC=C(c2cc(N3CCC[C@@H](NC(=O)c4sc(C(F)F)cc4OC4CCNCC4)C3)c3c(N)ncnn23)C1 [Example 347, (R)—N-(1-(7-(1-acetyl-2,5-dihydro-1H-pyrrol-3-yl)-4-aminopyrrolo[2,1-f][1,2,4]triazin-5-yl)piperidin-3-yl)-5-(difluoromethyl)-3-(piperidin-4-yloxy)thiophene-2-carboxamide]

Row | Structure (SMILES) | IC50 [nM]
24 | CN1CCN(c2cccc(C(=O)N[C@@H]3CCCN(c4cc(-c5cnn(C6CCOC6)c5)n5ncnc(N)c45)C3)n2)CC1 (stereo partly drawn) [Example 803, N-((3R)-1-(4-amino-7-(1-(tetrahydrofuran-3-yl)-1H-pyrazol-4-yl)pyrrolo[2,1-f][1,2,4]triazin-5-yl)piperidin-3-yl)-6-(4-methylpiperazin-1-yl)picolinamide] | 2050
25 | CCn1cc(-c2cc(N3CCC[C@@H](NC(=O)c4cccc(N5CCN(C)CC5)n4)C3)c3c(N)ncnn23)ccc1=O [Example 799, (R)-N-(1-(4-amino-7-(1-ethyl-6-oxo-1,6-dihydropyridin-3-yl)pyrrolo[2,1-f][1,2,4]triazin-5-yl)piperidin-3-yl)-6-(4-methylpiperazine-1-yl)picolinamide] | 3
